Experimental findings from patent publication US20020169157A1, “Selective protein tyrosine phosphatatase inhibitors” (priority 2000, published 2002) are described below.

In one assay the target is T1, SHP-2 (full length) (Homo sapiens, UniProt Q06124).
T1 construct: SHP-2 (full length) was expressed in from E. coli; made in house; host or cells: E. coli
T1 sequence (Q06124 1-593): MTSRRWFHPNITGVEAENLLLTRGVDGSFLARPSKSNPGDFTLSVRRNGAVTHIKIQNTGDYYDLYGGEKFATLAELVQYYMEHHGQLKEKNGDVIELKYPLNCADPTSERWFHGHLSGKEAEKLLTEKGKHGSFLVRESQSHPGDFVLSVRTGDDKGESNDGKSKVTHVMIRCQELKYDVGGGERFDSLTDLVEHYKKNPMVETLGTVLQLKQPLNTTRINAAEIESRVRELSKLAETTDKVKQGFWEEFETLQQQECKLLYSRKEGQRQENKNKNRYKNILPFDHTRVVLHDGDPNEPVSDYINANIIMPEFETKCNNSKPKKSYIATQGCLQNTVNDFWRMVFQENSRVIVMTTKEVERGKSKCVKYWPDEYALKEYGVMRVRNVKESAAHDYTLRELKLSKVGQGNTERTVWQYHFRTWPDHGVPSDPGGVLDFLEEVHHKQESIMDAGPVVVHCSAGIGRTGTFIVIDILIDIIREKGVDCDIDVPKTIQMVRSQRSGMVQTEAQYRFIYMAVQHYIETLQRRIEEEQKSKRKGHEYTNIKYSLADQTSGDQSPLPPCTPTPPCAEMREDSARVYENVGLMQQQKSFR
Briefly: Inhibition constant determination, selectivity panel: SHP-2 (pNPP hydrolysis). The format is biochemical. The conditions noted are these: competitive Ki, pNPP substrate; read-out: Phosphatase Inhibition Constants (Kic) SHP-2.

The target of the next assay is T2, LAR (Homo sapiens, UniProt P10586).
T2 construct: purchased New England Biolabs P0750L
T2 sequence (P10586 1301-1639 limits assumed): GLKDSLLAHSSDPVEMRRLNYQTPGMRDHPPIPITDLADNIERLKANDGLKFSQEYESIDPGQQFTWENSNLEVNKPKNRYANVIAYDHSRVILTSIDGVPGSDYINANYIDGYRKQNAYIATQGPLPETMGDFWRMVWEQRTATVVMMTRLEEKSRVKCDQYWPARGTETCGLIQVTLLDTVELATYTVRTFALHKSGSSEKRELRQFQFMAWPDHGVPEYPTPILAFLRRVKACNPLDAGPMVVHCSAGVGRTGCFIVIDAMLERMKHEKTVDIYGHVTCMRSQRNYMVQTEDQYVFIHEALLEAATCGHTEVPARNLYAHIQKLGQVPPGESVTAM
Kind of assay: Inhibition constant determination, selectivity panel: LAR (pNPP hydrolysis). It counts as biochemical. The settings on record: competitive Ki, pNPP substrate; read-out: Phosphatase Inhibition Constants (Kic) LAR.

A further assay deals with T3, CD45 (Homo sapiens, UniProt P08575).
T3 construct: purchased Biomol Research Laboratories SE-135
T3 sequence (P08575 609-1306 limits assumed): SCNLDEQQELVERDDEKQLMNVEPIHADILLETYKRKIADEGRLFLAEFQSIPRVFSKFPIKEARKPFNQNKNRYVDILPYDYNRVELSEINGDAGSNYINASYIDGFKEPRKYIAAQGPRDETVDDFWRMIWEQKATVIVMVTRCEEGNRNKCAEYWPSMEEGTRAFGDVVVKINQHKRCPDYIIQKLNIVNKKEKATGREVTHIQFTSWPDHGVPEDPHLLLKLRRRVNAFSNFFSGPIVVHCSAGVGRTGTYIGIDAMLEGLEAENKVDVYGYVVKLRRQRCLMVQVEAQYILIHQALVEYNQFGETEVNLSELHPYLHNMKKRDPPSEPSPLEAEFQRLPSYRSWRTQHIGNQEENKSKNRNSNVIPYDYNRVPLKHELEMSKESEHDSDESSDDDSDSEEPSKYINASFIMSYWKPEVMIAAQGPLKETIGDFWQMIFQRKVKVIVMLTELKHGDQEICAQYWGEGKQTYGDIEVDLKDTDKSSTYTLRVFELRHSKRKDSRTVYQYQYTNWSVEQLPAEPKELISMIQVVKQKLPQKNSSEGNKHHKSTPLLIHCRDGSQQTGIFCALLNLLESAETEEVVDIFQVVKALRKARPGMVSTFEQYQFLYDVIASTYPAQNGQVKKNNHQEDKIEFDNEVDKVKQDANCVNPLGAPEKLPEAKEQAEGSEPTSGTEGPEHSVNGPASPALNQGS
Briefly: Inhibition constant determination, selectivity panel: CD45 (pNPP hydrolysis). It counts as biochemical. The conditions noted are these: competitive Ki, pNPP substrate; read-out: Phosphatase Inhibition Constants (Kic) CD45.

The next assay has as its target T4, PP2B (Bos taurus, UniProt P48452).
T4 construct: purchased Sigma C1907
Briefly: Inhibition constant determination, selectivity panel: PP2B (pNPP hydrolysis). It counts as biochemical, Bovine. The conditions noted are these: competitive Ki, pNPP substrate, TRIS-HCl pH 8.6 buffer; read-out: Phosphatase Inhibition Constants (Kic) PP2B.

In assay [1] the target is T5, CDC25c (fusion with glutathione-S-transferase) (Homo sapiens, UniProt P30307).
T5 construct: GST (glutathione-S-transferase); made in house; host or cells: E. coli
T5 sequence (P30307 1-473): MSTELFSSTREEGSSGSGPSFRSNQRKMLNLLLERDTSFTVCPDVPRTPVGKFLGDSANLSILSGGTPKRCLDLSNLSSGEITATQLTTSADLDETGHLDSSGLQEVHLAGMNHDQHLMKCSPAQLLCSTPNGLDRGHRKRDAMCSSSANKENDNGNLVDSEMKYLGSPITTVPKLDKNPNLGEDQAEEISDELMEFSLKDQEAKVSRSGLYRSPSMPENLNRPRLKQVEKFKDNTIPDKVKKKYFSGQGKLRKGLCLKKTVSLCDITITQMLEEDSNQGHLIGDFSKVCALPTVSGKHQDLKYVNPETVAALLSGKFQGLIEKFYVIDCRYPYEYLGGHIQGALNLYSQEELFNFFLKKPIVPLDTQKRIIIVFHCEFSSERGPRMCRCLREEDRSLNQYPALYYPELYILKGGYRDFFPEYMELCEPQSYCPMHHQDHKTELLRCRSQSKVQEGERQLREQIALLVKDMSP
Kind of assay: Inhibition constant determination, selectivity panel: Cdc25c (pNPP hydrolysis). It counts as biochemical. The conditions noted are these: competitive Ki, pNPP substrate; read-out: Phosphatase Inhibition Constants (Kic) Cdc25c.
Method: (§1) Protein tyrosine phosphatase 1B activity was determined by measuring the rate of hydrolysis of a surrogate substrate, p-nitrophenyl phosphate (aka pNPP, C1907 Sigma, St. Louis, Mo.). The assay was carried out at room temperature in 96 well polypropylene or polyethylene plates in a total volume of 100 μL per well. Appropriate dilutions of the compounds were made in DMSO and then diluted ten fold with water. […] The reaction was initiated by adding 50 μL of diluted PTP1B diluted in 2× assay buffer containing 50 mM HEPES (pH=7.5), 300 mM NaCl and 0.2 mg/mL BSA. The phosphatase activity results in the formation of the colored product p-nitrophenol (pNP) which was continuously monitored at 405 nm every 30 seconds for 15 minutes using an appropriate plate reader. The absorbance at 405 nm was converted to nanomoles of pNP using a standard curve and the initial rate of pNP formation was calculated. […] The ratio of the apparent Km/Vmax vs. inhibitor concentration was plotted and the competitive Ki was calculated by linear regression to be the negative x-intercept. The uncompetitve Ki was similarly calculated from the x-intercept of the plot of the reciprocal of the apparent Vmax versus the inhibitor concentration.
(§2) The Kic and Kiu values are calculated as described for PTP1B. […]

In a further assay the target is T6, TC-PTP (Homo sapiens, UniProt P17706).
T6 construct: chromatography of TCPTP (amino acid residues 1-283) was on Q-Sepharose-FF
T6 sequence (P17706 1-283): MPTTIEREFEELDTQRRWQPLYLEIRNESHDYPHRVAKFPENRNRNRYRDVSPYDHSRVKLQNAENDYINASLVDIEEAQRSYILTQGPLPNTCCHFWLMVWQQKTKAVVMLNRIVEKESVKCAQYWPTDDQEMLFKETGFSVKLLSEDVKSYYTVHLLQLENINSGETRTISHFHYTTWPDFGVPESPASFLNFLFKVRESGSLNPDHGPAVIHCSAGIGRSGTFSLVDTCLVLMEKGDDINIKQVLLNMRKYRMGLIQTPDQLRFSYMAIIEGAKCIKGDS
Kind of assay: Inhibition constant determination, selectivity panel: TCPTP (pNPP hydrolysis). The format is biochemical. The conditions noted are these: for Ki: competitive Ki, pNPP substrate, +/− S.D., read-out: Phosphatase Inhibition Constants (Kic) TC-PTP; for selective for PTP1B over TCPTP: from Kic values of Table 1.

The target in assay [2] is T7, protein tyrosine phosphatase 1B (PTP1B, amino acid residues 1-321) (Homo sapiens, UniProt P18031).
T7 construct: PTP1B, amino acid residues 1-321; made in house; host or cells: E. coli BL21 (DE3)
T7 sequence (P18031 1-321): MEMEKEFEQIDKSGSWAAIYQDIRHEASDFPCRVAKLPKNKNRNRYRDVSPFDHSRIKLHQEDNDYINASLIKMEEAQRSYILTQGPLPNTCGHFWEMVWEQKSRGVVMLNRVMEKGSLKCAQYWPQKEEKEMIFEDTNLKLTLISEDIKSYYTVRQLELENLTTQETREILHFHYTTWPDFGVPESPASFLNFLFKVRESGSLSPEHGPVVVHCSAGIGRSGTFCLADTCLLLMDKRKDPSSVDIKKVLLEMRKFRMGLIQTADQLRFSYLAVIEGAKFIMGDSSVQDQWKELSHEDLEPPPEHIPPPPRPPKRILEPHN
Briefly: Inhibition constant determination for protein tyrosine phosphatase 1B (pNPP hydrolysis). The format is biochemical. The settings on record: competitive Ki, pNPP substrate, +/− S.D.; read-out: Phosphatase Inhibition Constants (Kic) PTP1B.
Method: Protein tyrosine phosphatase 1B activity was determined by measuring the rate of hydrolysis of a surrogate substrate, p-nitrophenyl phosphate (aka pNPP, C1907 Sigma, St. Louis, Mo.). The assay was carried out at room temperature in 96 well polypropylene or polyethylene plates in a total volume of 100 μL per well. Appropriate dilutions of the compounds were made in DMSO and then diluted ten fold with water. […] The reaction was initiated by adding 50 μL of diluted PTP1B diluted in 2× assay buffer containing 50 mM HEPES (pH=7.5), 300 mM NaCl and 0.2 mg/mL BSA. […] For each concentration of test compound (inhibitor) or DMSO control, the initial rates are used to fit the rectangular hyperbola of Michaelis-Menten by non-linear regression analysis (GraphPad Software Prism 3.0). The ratio of the apparent Km/Vmax vs. inhibitor concentration was plotted and the competitive Ki was calculated by linear regression to be the negative x-intercept. The uncompetitve Ki was similarly calculated from the x-intercept of the plot of the reciprocal of the apparent Vmax versus the inhibitor concentration.

SMILES strings stand for the structures.

T4 sequence (P63099 2-170 partner limits assumed, other chains not shown): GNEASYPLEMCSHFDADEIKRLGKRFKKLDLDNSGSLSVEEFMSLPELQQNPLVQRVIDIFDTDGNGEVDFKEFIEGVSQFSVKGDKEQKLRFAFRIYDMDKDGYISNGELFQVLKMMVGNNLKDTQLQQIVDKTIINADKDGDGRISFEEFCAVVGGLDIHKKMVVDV
Method for CD45: (§3) Protein tyrosine phosphatase 1B activity was determined by measuring the rate of hydrolysis of a surrogate substrate, p-nitrophenyl phosphate (aka pNPP, C1907 Sigma, St. Louis, Mo.). The assay was carried out at room temperature in 96 well polypropylene or polyethylene plates in a total volume of 100 μL per well. Appropriate dilutions of the compounds were made in DMSO and then diluted ten fold with water. […] The reaction was initiated by adding 50 μL of diluted PTP1B diluted in 2× assay buffer containing 50 mM HEPES (pH=7.5), 300 mM NaCl and 0.2 mg/mL BSA. The phosphatase activity results in the formation of the colored product p-nitrophenol (pNP) which was continuously monitored at 405 nm every 30 seconds for 15 minutes using an appropriate plate reader. The absorbance at 405 nm was converted to nanomoles of pNP using a standard curve and the initial rate of pNP formation was calculated. […] The ratio of the apparent Km/Vmax vs. inhibitor concentration was plotted and the competitive Ki was calculated by linear regression to be the negative x-intercept. The uncompetitve Ki was similarly calculated from the x-intercept of the plot of the reciprocal of the apparent Vmax versus the inhibitor concentration. […]
as §2
Method for LAR: as §3, §2
Method for PP2B: as §3, §2
Method for SHP-2 (full length): as §1, §2
Method for TC-PTP: Protein tyrosine phosphatase 1B activity was determined by measuring the rate of hydrolysis of a surrogate substrate, p-nitrophenyl phosphate (aka pNPP, C1907 Sigma, St. Louis, Mo.). The assay was carried out at room temperature in 96 well polypropylene or polyethylene plates in a total volume of 100 μL per well. Appropriate dilutions of the compounds were made in DMSO and then diluted ten fold with water. […] The reaction was initiated by adding 50 μL of diluted PTP1B diluted in 2× assay buffer containing 50 mM HEPES (pH=7.5), 300 mM NaCl and 0.2 mg/mL BSA. The phosphatase activity results in the formation of the colored product p-nitrophenol (pNP) which was continuously monitored at 405 nm every 30 seconds for 15 minutes using an appropriate plate reader. The absorbance at 405 nm was converted to nanomoles of pNP using a standard curve and the initial rate of pNP formation was calculated. For each concentration of test compound (inhibitor) or DMSO control, the initial rates are used to fit the rectangular hyperbola of Michaelis-Menten by non-linear regression analysis (GraphPad Software Prism 3.0). The ratio of the apparent Km/Vmax vs. inhibitor concentration was plotted and the competitive Ki was calculated by linear regression to be the negative x-intercept. The uncompetitve Ki was similarly calculated from the x-intercept of the plot of the reciprocal of the apparent Vmax versus the inhibitor concentration.
TCPTP used was either obtained commercially (catalog#752L New England Biolabs, 32 Tozer Rd, Beverly, Mass.) or as described for PTP1B. The purification of TCPTP differed from the purification of PTP1b in that chromatography of TCPTP (amino acid residues 1-283) was on Q-Sepharose-FF (Amersham Pharmacia Biotech) in 50 mM TRIS-HC1, pH 7.5, 2 mM DTT, 10% (v/v) glycerol, and was eluted with a 3 CV gradient of 0-300 mM NaCl in the same buffer. Fractions which contained TCPTP were selected and pooled based on SDS-PAGE. They were dialyzed versus 40 mM sodium phosphate, pH 7.5, 1 M ammonium sulfate, 10% (v/v) glycerol, 2 mM DTT, 1 mM sodium azide, applied to Phenyl Sepharose FF (Amersham Pharmacia Biotech), washed with 2.5 CV of the same buffer, and eluted with a 7 CV gradient of 1M to 0M NaCl in the same buffer. Fractions were assayed, pooled, frozen and stored as described for PTP1B.
The Kic and Kiu values are calculated as described for PTP1B. The assays were performed as described for PTP-1B except for the following changes. All the phosphatases except PP2B use the same 2× assay buffer as PTP1B. […] The concentrations of pNPP present in 40 ul were the same for TCPTP, CD45, LAR and PTP1B.

As for `CCc1cc(C[C@H](NC(C)=O)C(=O)NCCCCC(=O)N[C@@H](CCSC)C(=O)O)ccc1N(C(=O)C(=O)O)c1ccccc1C(=O)O` [Example 3, N-{5-[(N-acetyl-4-[(carboxycarbonyl)(2-carboxyphenyl)amino]-3-ethylphenylalanyl)amino]pentanoyl}-L-methionine], the Ki is 17 µM on SHP-2 (full length); 5 µM at LAR; over 200 µM on CD45; over 200 µM on PP2B; over 200 µM in assay [1].
For the molecule `CCc1cc(C[C@H](NC(C)=O)C(=O)NCCCCOc2cccc(O)c2C(=O)OC)ccc1N(C(=O)C(=O)O)c1ccccc1C(=O)O` [Example 13, Methyl 2-{4-[(N-acetyl-4-[(carboxycarbonyl)(2-carboxyphenyl)amino]-3-ethylphenylalanyl)amino]butoxy}-6-hydroxybenzoate], the Ki is 0.57 µM on TC-PTP; 14.2 µM at SHP-2 (full length); 4.6 µM at LAR; over 200 µM on CD45; over 200 µM on PP2B; over 200 µM in assay [1].
As to `CCC(CN(C(=O)C(=O)O)c1ccc(C[C@H](NC(=O)OC(C)(C)C)C(=O)NCCCCOc2cccc(O)c2C(=O)OC)cc1)C(=O)O` (stereo partly drawn) [Example 36, Methyl 2-(4-{[N-(tert-butoxycarbonyl)-4-[(2-carboxybutyl)(carboxycarbonyl)amino]phenylalanyl]amino}butoxy)-6-hydroxybenzoate], the values for the Ki (in assay [2]; at TC-PTP) were 1.3 µM and 7.9 µM, respectively. Also, the “selective for PTP1B over TCPTP” value on TC-PTP is recorded as “at least 6 fold”.
Regarding `COC(=O)c1c(O)cccc1OCCCCNC(=O)[C@H](Cc1ccc(NC(=O)C(=O)O)cc1)NC(=O)OC(C)(C)C` [Example 45, Methyl 2-(4-{[4-(carboxycarbonyl)amino-N-(tert-butoxycarbonyl)phenylalanyl]amino}butoxy)-6-hydroxybenzoate], the Ki at TC-PTP stood at 141 µM.
In the case of `COC(=O)c1c(O)cccc1OCCCCNC(=O)CCc1ccc(NC(=O)C(=O)O)c(C(=O)O)c1` [Example 52, 2-[(carboxycarbonyl)amino]-5-[3-({4-[3-hydroxy-2-(methoxycarbonyl)phenoxy]butyl}amino)-3-oxopropyl]benzoic acid], the Ki in assay [2] was 2.7 µM; at TC-PTP, 38.2 µM. Moreover, the “selective for PTP1B over TCPTP” value on TC-PTP is “at least 14 fold”.
